Laboratory results from patent publication US20200325109A1, “IMINO-UREA DERIVATIVES” (Lunan Pharmaceutical Group Corporation, priority 2017, published 2020).
Like-named read-outs stand apart in the source and are kept apart here.

What was measured:
[1] = mouse, in vivo
[2] = molecular target: T1, human indoleamine 2,3-dioxygenase (Homo sapiens, UniProt P14902); assay: Determination of the activity for inhibiting indoleamine 2,3-dioxygenase and IC50; assay type: biochemical; conditions: purified human IDO, 200 μM L-tryptophan, 37° C., 60 minutes, pH 6.5
T1 construct: made in house; host or cells: E. coli
T1 sequence (P14902 whole entry): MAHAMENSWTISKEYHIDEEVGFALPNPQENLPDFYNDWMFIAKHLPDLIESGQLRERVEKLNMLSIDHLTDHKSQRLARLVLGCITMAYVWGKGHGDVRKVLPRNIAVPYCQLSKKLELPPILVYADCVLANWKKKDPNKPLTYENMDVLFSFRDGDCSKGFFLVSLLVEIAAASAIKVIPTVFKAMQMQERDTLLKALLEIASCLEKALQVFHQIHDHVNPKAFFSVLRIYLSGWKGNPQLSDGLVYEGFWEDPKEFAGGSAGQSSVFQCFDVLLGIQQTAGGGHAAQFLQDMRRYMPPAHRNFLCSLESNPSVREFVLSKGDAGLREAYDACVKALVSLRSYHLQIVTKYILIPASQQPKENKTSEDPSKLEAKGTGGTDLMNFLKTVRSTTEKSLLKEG

LLC tumors = assay: In vivo antitumor activity test, LLC tumors in mice; parameters: Tumor inhibition rate: concentration or dose not given beside the values; conditions: LLC tumors in C57BL6 mice, once per day, 21 days; for Tumor weight: CTX intraperitoneal 150 mg·kg^−1, compounds intragastric; for Tumor inhibition rate: from average tumor weight vs model group
[3] = tested on: DC-stimulated T cell proliferation; assay: DC-stimulated T cell proliferation assay (MLR); assay type: cell-based, human; conditions: MTT, A570 nm, 72 hours
Protocol: The human peripheral blood leukocyte layer was taken and diluted with same volume of 0.01 mol/L PBS. PBMC was routinely isolated with a lymphocyte separation medium, and the cell concentration was adjusted to 3×10^6 ml^−1 in a complete RPMI1640 medium; the cells were added to a 6-well plate, 3 ml per well, and cultured in a 5% CO2, 37° C. incubator for 2 hours, washed with PBS for 3 times to remove non-adherent cells, then added with a culture medium containing IL-4 (100 U/ml), GM-CSF (150 ng/ml) and TNF-α (500 U/ml), and then routinely cultured, the medium was changed for half every other day. After 8 days of culture, the cells were used for identification and experiment.
The human PBMC layer was separated by the method in the step 1. The macrophages were removed by the adherence method, the B cells were removed by the nylon wool fiber syringe method, and the obtained T cells were adjusted to a cell concentration of 1×10^6 cells/ml.
The mature DCs with a purity of 99% were centrifuged, added with RPMI1640 to adjust the cell concentration to 1×10^5, 4×10^4, 2×10^4/ml, and added to a 96-well plate, two wells for each concentration, 100 μl/well.
T cells were added to DCs of each of the above drug-added groups, 100 μl/well, cultured in a 5% CO2, 37° C. incubator for 72 hours; for each well, 100 μl of the culture solution was gently sucked out 6 hours before the end of the culture, and 10 μl of MTT (5 mg/ml) was added, further cultured in incubator for 6 hours, then 100 μl of 0.01 mol/L HCl-10% SDS was added, stood at 37° C. overnight, and the absorbance value (A570 nm) was determined by a microplate to show the T cell proliferation level.

[4] = tested on: mice with Alzheimer (AD model); assay: Morris water maze detection of behavioral changes in mice with Alzheimer; assay type: in vivo; conditions: for Number of stays / Time of stay: spatial probe test, sixth day
Protocol: Mouse behavioral analysis was performed using a Morris water maze (Ethovision XT monitoring and analysis software, Morris water maze system, from Noldus, Netherlands). The water maze test process was divided into two parts, hidden platform acquisition test for consecutive 5 days, and spatial probe test on the sixth day, the mice were administered according to the test groups and the design doses before each test. The mice were trained 4 times a day, each time the mice were dived in different areas, the water maze was divided into areas 1, 2, 3 and 4 according to the south, east, north and west, and the platform was the 5th area located in the 4th area. […] The hidden platform acquisition test was used to detect the learning ability of mice, while the spatial probe test was used to detect the spatial memory ability of mice.
Using the statistical analysis software SPSS16.0, the escape latent period of the hidden platform acquisition test was analyzed by variance of multiple measures; and the swimming time in each quadrant and the number of crossing target in the spatial probe test were analyzed by one-way analysis of variance. The data were expressed as mean±standard deviation, and the significant level of difference was set as bilateral P=0.05.

[5] = Effects of compounds on body weight of mice in the LLC tumor test; conditions: LLC tumor-bearing mice

In the case of `N=C(N)NCCNc1nonc1/C(=N/O)Nc1ccc(F)c(Br)c1` [Example 3047], the “Average body weight before test” value [1] is reported as 22 ± 3.4 g, the IC50 [2] is reported as 37 nM and the Tumor weight (LLC tumors) is reported as 0.370 ± 0.209^##※ g. The Tumor inhibition rate (LLC tumors) was 75.6%, the “T:DC (absorbance value)” value ([3]; T:DC 10:1) was 0.864 ± 0.006^##※ and the “T:DC (absorbance value)” value ([3]; T:DC 25:1) was 0.834 ± 0.004^##※. The “T:DC (absorbance value)” value ([3]; T:DC 50:1) was 0.825 ± 0.007^##※, the “Latent period for searching platform in hidden platform test” value (“Latent period for searching platform” for short) ([4]; 1st Day) was 52.3 ± 5.2 s and the “Latent period for searching platform” value ([4]; 2nd Day) was 44.0 ± 4.4 s. The “Latent period for searching platform” value ([4]; 3th Day) was 22.1 ± 4.5^##※ s, the Number of stays ([4]; 4th Area) was 13.0 ± 1.5^##※ times and the Time of stay ([4]; 4th Area) was 25.9 ± 5.2^##※ s. The “Latent period for searching platform” value ([4]; 4th Day) was 10.5 ± 5.7^##※ s, the Number of stays ([4]; 5th Area (platform)) was 3.8 ± 0.6^##※ times and the Time of stay ([4]; 5th Area (platform)) was 5.9 ± 0.7^##※ s. The “Latent period for searching platform” value ([4]; 5th Day) was 5.4 ± 6.0^##※※ s.
Work on `N/C(=N\C(=O)CC1CC1)NCCCNc1nonc1/C(=N/O)Nc1ccc(F)c(Br)c1` [XSD3-081] yielded an IC50 [2] of 89 nM.
`N/C(=N\S(=O)(=O)CC1CCCCC1)NCCCNc1nonc1/C(=N/O)Nc1ccc(F)c(Br)c1` [XSD3-088] showed an IC50 [2] of 72 nM.
`N=C(N)NCCCNc1nonc1/C(=N/O)Nc1ccc(F)c(Br)c1` [Example 3048] gave an IC50 [2] of 20 nM.
`N/C(=N\C(=O)CC1CCC1)NCCCNc1nonc1/C(=N/O)Nc1ccc(F)c(Br)c1` [XSD3-082] showed an IC50 [2] of 101 nM.
`N/C(=N\C(=O)C1CCCCC1)NCCNc1nonc1/C(=N/O)Nc1ccc(F)c(Br)c1` [XSD3-068] showed an IC50 [2] of 539 nM.
`N/C(=N\C(=O)CC1CC1)NCCNc1nonc1/C(=N/O)Nc1ccc(F)c(Br)c1` [XSD3-069] showed an IC50 [2] of 345 nM.
In the case of `CCC(=O)NC(=N)NCCNc1nonc1/C(=N/O)Nc1ccc(F)c(Br)c1` [XSD3-052], the IC50 [2] is reported as 343 nM.
Work on `N/C(=N\C(=O)C1CC1)NCCNc1nonc1/C(=N/O)Nc1ccc(F)c(Br)c1` [XSD3-065] yielded an IC50 [2] of 118 nM.
`N/C(=N\C(=O)Cc1ccccc1)NCCCNc1nonc1/C(=N/O)Nc1ccc(F)c(Br)c1` [XSD3-093] showed an IC50 [2] of 44 nM.
`CNC(=N)NCCNc1nonc1/C(=N/O)Nc1ccc(F)c(Br)c1` [Example 3049] gave an IC50 [2] of 22 nM.
Compound `N/C(=N\C(=O)CC1CCCCC1)NCCNc1nonc1/C(=N/O)Nc1ccc(F)c(Br)c1` [XSD3-072] has an IC50 [2] of 502 nM.
In the case of `N=C(NCCNc1nonc1/C(=N/O)Nc1ccc(F)c(Br)c1)NS(=O)(=O)c1ccccc1` [XSD3-058], the “body weight compared with the model group” value [1] is reported as “no significant difference in body weight”, the IC50 [2] is reported as 57 nM and the Tumor weight (LLC tumors) is reported as 0.400 ± 0.112 g. For the same compound, the Tumor inhibition rate (LLC tumors) was 72.3%, the “T:DC (absorbance value)” value ([3]; T:DC 10:1) was 0.880 ± 0.003 and the “T:DC (absorbance value)” value ([3]; T:DC 25:1) was 0.849 ± 0.002. The “T:DC (absorbance value)” value ([3]; T:DC 50:1) was 0.831 ± 0.002, the “Latent period for searching platform” value ([4]; 1st Day) was 45.3 ± 3.7 s and the “Latent period for searching platform” value ([4]; 2nd Day) was 41.3 ± 3.2 s. The “Latent period for searching platform” value ([4]; 3th Day) was 25.4 ± 4.6 s, the Number of stays ([4]; 4th Area) was 13.3 ± 1.8 times and the Time of stay ([4]; 4th Area) was 25.2 ± 4.2 s. The “Latent period for searching platform” value ([4]; 4th Day) was 15.5 ± 4.9 s, the Number of stays ([4]; 5th Area (platform)) was 3.5 ± 0.9 times and the Time of stay ([4]; 5th Area (platform)) was 5.9 ± 0.6 s. The “Latent period for searching platform” value ([4]; 5th Day) was 7.3 ± 6.1 s.
For `N/C(=N\C(=O)C1CCCC1)NCCNc1nonc1/C(=N/O)Nc1ccc(F)c(Br)c1` [XSD3-067], the IC50 [2] was 142 nM.
In the case of `N/C(=N\C(=O)C1CCC1)NCCNc1nonc1/C(=N/O)Nc1ccc(F)c(Br)c1` [XSD3-066], the IC50 [2] is reported as 132 nM.
`CC(C)(C)OC(=O)N=C(NCCNc1nonc1/C(=N/O)Nc1ccc(F)c(Br)c1)NC(=O)OC(C)(C)C` [Example 3051] showed an IC50 [2] of 23 nM.
`N/C(=N/C(=O)CC1CCC1)NCCNc1nonc1/C(=N/O)Nc1ccc(F)c(Br)c1` [XSD3-070] showed an IC50 [2] of 345 nM.
With `NS(=O)(=O)NCCNc1nonc1C(=Nc1ccc(F)c(Br)c1)NO` [INCB024360, reference compound] the Tumor weight (LLC tumors) was 0.653 ± 0.178 g, the Tumor inhibition rate (LLC tumors) was 56.9% and the “T:DC (absorbance value)” value ([3]; T:DC 10:1) was 0.830 ± 0.002. For the same compound, the “T:DC (absorbance value)” value ([3]; T:DC 25:1) was 0.804 ± 0.004, the “T:DC (absorbance value)” value ([3]; T:DC 50:1) was 0.799 ± 0.003 and the “Latent period for searching platform” value ([4]; 1st Day) was 53.2 ± 2.3 s. The “Latent period for searching platform” value ([4]; 2nd Day) was 51.4 ± 4.8 s, the “Latent period for searching platform” value ([4]; 3th Day) was 38.6 ± 5.5 s and the Number of stays ([4]; 4th Area) was 8.4 ± 1.0 times. The Time of stay ([4]; 4th Area) was 16.2 ± 2.4 s, the “Latent period for searching platform” value ([4]; 4th Day) was 28.7 ± 3.9 s and the Number of stays ([4]; 5th Area (platform)) was 2.1 ± 0.4 times. For the same compound, the Time of stay ([4]; 5th Area (platform)) was 3.9 ± 0.7 s and the “Latent period for searching platform” value ([4]; 5th Day) was 19.9 ± 6.7 s.
For `O=P1(N(CCCl)CCCl)NCCCO1` (stereo not shown) [CTX, cyclophosphamide, reference compound], the “Average body weight after test” value ([5]; after test (21 days of administration)) was 19 ± 3.3 g, the “Average body weight before test” value ([5]; before test) was 22 ± 3.1 g and the Tumor weight (LLC tumors) was 0.701 ± 0.314 g. It also gave a Tumor inhibition rate (LLC tumors) of 53.7%.
Work on `N/C(=N\S(=O)(=O)c1ccccc1)NCCCNc1nonc1/C(=N/O)Nc1ccc(F)c(Br)c1` [XSD3-074] yielded an IC50 [2] of 63 nM.
`N/C(=N\C(=O)Cc1ccccc1)NCCNc1nonc1/C(=N/O)Nc1ccc(F)c(Br)c1` [XSD3-092] gave an IC50 [2] of 399 nM.
`CC(C)(C)OC(=O)N=C(N)NCCCNc1nonc1/C(=N/O)Nc1ccc(F)c(Br)c1` [Example 3053] showed an IC50 [2] of 16 nM.
With `N/C(=N\C(=O)C1CCCCC1)NCCCNc1nonc1/C(=N/O)Nc1ccc(F)c(Br)c1` [XSD3-078] the IC50 [2] was 145 nM.
For `N/C(=N\C(=O)C1CCCC1)NCCCNc1nonc1/C(=N/O)Nc1ccc(F)c(Br)c1` [XSD3-080], the IC50 [2] was 87 nM.
In the case of `N/C(=N\S(=O)(=O)CC1CCCCC1)NCCNc1nonc1/C(=N/O)Nc1ccc(F)c(Br)c1` [XSD3-089], the IC50 [2] is reported as 67 nM.
Compound `N/C(=N\C(=O)Cc1ccc(Cl)cc1)NCCCNc1nonc1/C(=N/O)Nc1ccc(F)c(Br)c1` [XSD3-093-1] has an IC50 [2] of 56 nM.
`N/C(=N\C(=O)Cc1ccc(F)cc1)NCCCNc1nonc1/C(=N/O)Nc1ccc(F)c(Br)c1` [XSD3-093-2] showed an IC50 [2] of 61 nM.
Compound `N/C(=N\C(=O)CC1CCCCC1)NCCCNc1nonc1/C(=N/O)Nc1ccc(F)c(Br)c1` [XSD3-084] has an IC50 [2] of 160 nM.
For `COc1ccc(CC(=O)/N=C(\N)NCCCNc2nonc2/C(=N/O)Nc2ccc(F)c(Br)c2)cc1` [XSD3-093-3], the IC50 [2] was 76 nM.
For `N/C(=N\C(=O)C1CCC1)NCCCNc1nonc1/C(=N/O)Nc1ccc(F)c(Br)c1` [XSD3-079], the “body weight compared with the model group” value [1] was “no significant difference in body weight”, the IC50 [2] was 95 nM and the Tumor weight (LLC tumors) was 0.384 ± 0.092 g. The Tumor inhibition rate (LLC tumors) was 73.4%, the “T:DC (absorbance value)” value ([3]; T:DC 10:1) was 0.876 ± 0.004 and the “T:DC (absorbance value)” value ([3]; T:DC 25:1) was 0.850 ± 0.003. For the same compound, the “T:DC (absorbance value)” value ([3]; T:DC 50:1) was 0.837 ± 0.004, the “Latent period for searching platform” value ([4]; 1st Day) was 40.5 ± 5.5 s and the “Latent period for searching platform” value ([4]; 2nd Day) was 39.3 ± 44 s. The “Latent period for searching platform” value ([4]; 3th Day) was 20.3 ± 4.2 s, the Number of stays ([4]; 4th Area) was 14.4 ± 1.3 times and the Time of stay ([4]; 4th Area) was 26.7 ± 3.3 s. The “Latent period for searching platform” value ([4]; 4th Day) was 17.7 ± 5.2 s, the Number of stays ([4]; 5th Area (platform)) was 3.9 ± 0.5 times and the Time of stay ([4]; 5th Area (platform)) was 5.8 ± 0.7 s. For the same compound, the “Latent period for searching platform” value ([4]; 5th Day) was 9.9 ± 5.2 s.
